Laboratory results from patent US8110544B2, “RasGAP derived peptide for selectively killing cancer cells” (Universite de Lausanne, priority 2003, dated 2012).

Experiments:
Format in all cases: cell-based, human
JNK = test: Western blot of phospho-JNK in U2OS cells; settings: 20 μM peptide
Description: (§1) U2OS cells (2×10^5) were plated in 6 well plates and treated for the indicated periods of time with the indicated combinations of the HW-TAT48-57 or TAT-RasGAP317-326 peptides (at a 20 μM concentration) and cisplatin (at a 30 μM concentration). Positive controls for JNK and p38 activation were obtained following stimulation of the cells with 1 μg/ml anisomycine during 3 hours and with 0.5 M sorbitol for 30 min, respectively. The quantitations depicted under the Western blots were performed on the 12-hour bands and normalized against the positive controls. The results correspond to the mean±standard deviation of three independent experiments. […]

p38 MAPKs = test: Western blot of phospho-p38 in U2OS cells; settings: 20 μM peptide
Description: as §1

[1] = system: cancer cell lines (HeLa, U2OS, MCF-7, and H-Meso1); test: Genotoxin-induced apoptosis (pycnotic nuclei) in cancer cell lines with or without peptides; settings: 20 μM peptide
Description: Four cancer cell lines (HeLa, U2OS, MCF-7, and H-Meso1) were plated in 6-wells plates and treated with the indicated concentrations of cisplatin, adriamycin and mitoxantrone in the absence or in the presence of either 20 μM MV-TAT48-57 Or TAT-RaSGAP317-326 peptides for 20 hours. The number of cells displaying pycnotic nucleus was then scored. The results correspond to the mean±standard deviation of three independent determinations. Asterisks denote significant differences between the genotoxin-treated cells incubated with TAT-RaSGAP317-326 and those left untreated or incubated with the HIV-TAT48-57 peptide (**, p<0.01; ***, p<0.001).
Apoptosis was determined by scoring the number of cells displaying pycnotic nuclei. Nuclei of live cells were labeled with Hoechst 33342 (10 μg/ml final concentration) for about 5 minutes and the cells were then analyzed (at least 400 cells per condition) using an inverted Leica DMIRB microscope equipped with fluorescence and transmitted light optics. Assessment of apoptosis was performed one day after the transfection or treatment of the cells. In experiment involving transfected cells, pEGFP-C1 was included in the transfection solution to label the transfected cells with GFP. In this case, the extent of apoptosis was assessed in the transfected cells only. […]

NFκB activity = test: NFκB firefly luciferase reporter assay in U2OS cells; settings: 20 hours
Description: U2OS Cells (1×10^5) were plated in 6 well plates and transfected with 1 μg of a firefly luciferase reporter plasmid for NFκB activity and 0.1 μg of a plasmid encoding the Renilla luciferase. The cells were treated one day later with the indicated concentrations of cisplatin in the absence or in the presence of 20 μM HV-TAT48-57 or TAT-RaSGAP317-326 peptides during 20 hours. The data represent the firefly luciferase activity normalized to the Renilla luciferase activity and expressed as fold increase of the basal NFκB activity obtained in control untreated cells. The results correspond to the mean±standard deviation of three independent determinations. Asterisks denote significant differences between the indicated conditions (**, p<0.01; ***, p<0.001).
(§2) U2OS cells were transfected with 1 μg of a firefly luciferase reporter plasmid for NFκB activity, 0.1 μg of a plasmid encoding the Renilla luciferase, 0.5 μg of a GFP-expressing plasmid (to label the transfected cells), 1 μg of a plasmid encoding IκBαΔN2 that inhibit the NFκB pathway or with 1 μg an empty pcDNA3 vector. The cells were incubated one day later with increasing concentrations of cisplatin in the presence of 20 μM HIV-TAT48-57 or 20 μM TAT-RasGAP317-326 for an additional 20 hour period. The cells were then lysed and the NFκB activity assessed as described in panel A, except that the results were expressed as fold increase of the NFκB activity detected in cells incubated with the control HV-TAT48-57 peptide.
Luciferase assay was performed using the Dual-Luciferase® Reporter Assay from Promega (cat. no E1910). […] The firefly luciferase activity was recorded by mixing 20 μl of the lysate with 25 μl of the LARII Reagent and the Renilla luciferase activity was recorded by adding to the previous mix 25 μl of the Stop & Glo Reagent. For each measurement, light emission was quantified during 12 seconds using a Lumat LB 9501 luminometer (Berthold Technologies, Zurich, Switzerland).

[2] = system: HeLa, U2OS, H-Meso1, MCF-7, HaCat and HUV-EC-C cell lines; test: Cellular uptake of FITC-labelled peptide (epifluorescence of live cells); settings: FITC-labelled peptide 20 μM
Description: The following cell lines (HeLa, U2OS, H-Meso1, MCF-7, HaCat and HUV-EC-C) were incubated 3 hours at 37° C., 5% CO2 in culture medium with 20 μM FITC-labelled TAT-RasGAP317-326 peptide and then washed three times with culture medium.
Fluorescein isothiocyanate (FITC)-labeling was performed on the sequence β-alanine-[…] (SEQ ID NO: 16) whose side chain Fmoc-protected amino acids were Arg(bpf), Lys(Boc), Gln(Trt), Trp(Boc), Thr(tBu), Asn(Trt), and Asp(OtBu). The peptide was synthesized stepwise on 0.2 mmol Rink Amide AM resin using Fmoc chemistry. The synthesis was monitored by ninhydrin test. After the coupling of β-alanine, the Fmoc group was removed with 20% piperidine in dimethylformamide (DMF). At this stage, a fluorescein group was conjugated to the N-terminus of peptide with FITC (5 fold excess over the substitution of the resin in 4 ml DMF and 1 ml N-ethyldiisopropylamine) to form the fluorescein-derivated peptide.
If a plasmid encoding amino acid 317-326 of RasGAP has the ability to enhance the ability of a drug to kill cancer cells, a synthetic peptide corresponding to the […] should also display this activity provided that it can penetrate cells. […] We first assessed the sensitivity of the cancer cell lines towards increasing concentrations of the three genotoxins (data not shown). […]

U2OS cells = test: Apoptosis of transfected (GFP-positive) U2OS cells with or without IκBαΔN2; settings: 20 μM peptide, IkBαΔN2 expressed, 20 hours
Description: as §2
Alternatively, the number of GFP-positive cells displaying pycnotic nucleus was determined. The results correspond to the mean±standard deviation of three independent determinations.
Apoptosis was determined by scoring the number of cells displaying pycnotic nuclei. Nuclei of live cells were labeled with Hoechst 33342 (10 μg/ml final concentration) for about 5 minutes and the cells were then analyzed (at least 400 cells per condition) using an inverted Leica DMIRB microscope equipped with fluorescence and transmitted light optics. […] In this case, the extent of apoptosis was assessed in the transfected cells only.

GRKKRRQRRRGGWMWVTNLRTD [TAT-RasGAP317-326]
activation of JNK pathway by peptide alone (JNK): neither the control HIV-TAT48-57 peptide nor the TAT-RasGAP317-326 peptide activated these MAPK pathways
activation of p38 MAPK pathway by peptide alone (p38 MAPKs): neither the control HIV-TAT48-57 peptide nor the TAT-RasGAP317-326 peptide activated these MAPK pathways
enhancement of the ability of cisplatin, adriamycin and mitoxantrone to kill cancer cell lines ([1]; 20 hours, sub-lethal genotoxin concentrations): enhanced the ability of cisplatin, adriamycin, and mitoxantrone to kill the tested cancer cell lines
apoptosis induced in control conditions (no genotoxin) ([1]; cancer cell lines): did not, or only marginally, induce apoptosis in control conditions
NFkB activation in U2OS cells (single agent) (NFκB activity; 20 μM peptide or cisplatin): activated
NFkB activation with both cisplatin and peptide (NFκB activity; U2OS cells, cisplatin plus 20 μM peptide): additive activation of NFkB
difference in translocation between non cancer cells and cancer cells ([2]; 3 hours): No difference in translocation
cellular uptake of the peptide ([2]; 3 hours at 37° C., four tumor and two non cancer cell lines): efficiently entered all these cell lines
potency to enhance cisplatin killing of U2OS cells in presence of NFkB inhibitor (U2OS cells): unaffected by the NFkB inhibitor
